Source: patent US10131652B2, “Pyrimidinyloxy benzene derivatives as herbicides” (E. I. DU PONT DE NEMOURS AND COMPANY, priority 2014, dated 2018)

What was measured:
Format in all cases: in vivo
[1] = test system: galium (catchweed bedstraw, Galium aparine); experiment: Test B postemergence plant response; conditions: 0 to 100 scale, 0 no effect, 100 complete control
How it was run: (§1)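 Injury was assessed visually about 10 days after treatment, scored from 0 (no effect) to 100 (complete control) by comparison with untreated controls. Test chemicals had been applied postemergence to potted plants at the one- to two-leaf stage, grown in loam soil and sand in a greenhouse.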

[2] = test system: blackgrass (Alopecurus myosuroides); experiment: Test B postemergence plant response; conditions: 0 to 100 scale, 0 no effect, 100 complete control
How it was run: as §1

[3] = test system: oilseed rape (Brassica napus); experiment: Test D pre-/postemergence plant response; conditions: Postemergence; for Oilseed Rape plant response rating: scale 0 to 100 (0 no effect, 100 complete control); for Plant response rating, Oilseed Rape: scale 0 to 100, 0 no effect, 100 complete control
How it was run: (§2)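 Preemergence: seeds in loam/sand blend treated with test chemicals in non-phytotoxic solvent with surfactant; postemergence: plants at 2–18 cm (1- to 4-leaf stage) in peat-based medium sprayed likewise. Greenhouse 13 to 15 days, then visual rating vs controls, 0 (no effect) to 100 (complete control).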

[4] = test system: pigweed (Amaranthus retroflexus); experiment: Test D pre-/postemergence plant response; conditions: Postemergence; for Pigweed plant response rating: scale 0 to 100 (0 no effect, 100 complete control); for Plant response rating, Pigweed: scale 0 to 100, 0 no effect, 100 complete control
How it was run: as §2

[5] = test system: giant foxtail (Setaria faberii); experiment: Test D pre-/postemergence plant response; conditions: Postemergence; for Foxtail, Giant plant response rating: scale 0 to 100 (0 no effect, 100 complete control); for Plant response rating, Foxtail, Giant: scale 0 to 100, 0 no effect, 100 complete control
How it was run: as §2

corn (Zea mays) = experiment: Test D pre-/postemergence plant response; conditions: Postemergence; for Corn plant response rating: scale 0 to 100 (0 no effect, 100 complete control); for Plant response rating, Corn: scale 0 to 100, 0 no effect, 100 complete control
How it was run: as §2

[6] = test system: morningglory (Ipomoea coccinea); experiment: Test D pre-/postemergence plant response; conditions: Postemergence; for Morningglory plant response rating: scale 0 to 100 (0 no effect, 100 complete control); for Plant response rating, Morningglory: scale 0 to 100, 0 no effect, 100 complete control
How it was run: as §2

[7] = test system: ragweed (common ragweed, Ambrosia elatior); experiment: Test D pre-/postemergence plant response; conditions: Postemergence; for Ragweed plant response rating: scale 0 to 100 (0 no effect, 100 complete control); for Plant response rating, Ragweed: scale 0 to 100, 0 no effect, 100 complete control
How it was run: as §2

[8] = test system: Italian ryegrass (Lolium multiflorum); experiment: Test D pre-/postemergence plant response; conditions: Postemergence; for Ryegrass, Italian plant response rating: scale 0 to 100 (0 no effect, 100 complete control); for Plant response rating, Ryegrass, Italian: scale 0 to 100, 0 no effect, 100 complete control
How it was run: as §2

[9] = test system: yellow nutsedge (Cyperus esculentus); experiment: Test D pre-/postemergence plant response; conditions: Postemergence; for Nutsedge, Yellow plant response rating: scale 0 to 100 (0 no effect, 100 complete control); for Plant response rating, Nutsedge, Yellow: scale 0 to 100, 0 no effect, 100 complete control
How it was run: as §2

[10] = test system: waterhemp (common waterhemp, Amaranthus rudis); experiment: Test D pre-/postemergence plant response; conditions: Postemergence; for Waterhemp plant response rating: scale 0 to 100 (0 no effect, 100 complete control); for Plant response rating, Waterhemp: scale 0 to 100, 0 no effect, 100 complete control
How it was run: as §2

soybean (Glycine max) = experiment: Test D pre-/postemergence plant response; conditions: Postemergence; for Soybean plant response rating: scale 0 to 100 (0 no effect, 100 complete control); for Plant response rating, Soybean: scale 0 to 100, 0 no effect, 100 complete control
How it was run: as §2

[11] = test system: barnyardgrass (Echinochloa crus-galli); experiment: Test D pre-/postemergence plant response; conditions: Postemergence; for Barnyardgrass plant response rating: scale 0 to 100 (0 no effect, 100 complete control); for Plant response rating, Barnyardgrass: scale 0 to 100, 0 no effect, 100 complete control
How it was run: as §2

[12] = test system: chickweed (common chickweed, Stellaria media); experiment: Test D postemergence plant response; conditions: for Chickweed plant response rating: scale 0 to 100 (0 no effect, 100 complete control); for Plant response rating, Chickweed: scale 0 to 100, 0 no effect, 100 complete control
How it was run: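 Postemergence spray on plants 2–18 cm tall (1- to 4-leaf stage), grown in pots of peat/vermiculite medium. Plants were kept in a greenhouse for 13–15 days, then visually rated against untreated controls on a 0 (no effect) to 100 (complete control) scale.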

FC(Cl)c1cc(-c2ccccc2Oc2ncc(Cl)cn2)no1 (stereo not shown) [Compound 116]
Plant response rating, Galium ([1]; 31 g ai/ha, Postemergence): 60
Plant response rating, Galium ([1]; 125 g ai/ha, postemergence): 70
Plant response rating, Blackgrass ([2]; 31 g ai/ha, Postemergence): 20
Plant response rating, Blackgrass ([2]; 125 g ai/ha, postemergence): 30
Oilseed Rape plant response rating ([3]; 16 g ai/ha): 50
Oilseed Rape plant response rating ([3]; 31 g ai/ha): 10
Plant response rating, Oilseed Rape ([3]; 62 g ai/ha): 55
Plant response rating, Oilseed Rape ([3]; 125 g ai/ha): 70
Pigweed plant response rating ([4]; 16 g ai/ha): 75
Pigweed plant response rating ([4]; 31 g ai/ha): 75
Plant response rating, Pigweed ([4]; 62 g ai/ha): 90
Plant response rating, Pigweed ([4]; 125 g ai/ha): 90
Foxtail, Giant plant response rating ([5]; 16 g ai/ha): 5
Foxtail, Giant plant response rating ([5]; 31 g ai/ha): 5
Plant response rating, Foxtail, Giant ([5]; 62 g ai/ha): 10
Plant response rating, Foxtail, Giant ([5]; 125 g ai/ha): 60
Corn plant response rating (corn (Zea mays); 16 g ai/ha): 5
Corn plant response rating (corn (Zea mays); 31 g ai/ha): 10
Plant response rating, Corn (corn (Zea mays); 62 g ai/ha): 5
Plant response rating, Corn (corn (Zea mays); 125 g ai/ha): 10
Morningglory plant response rating ([6]; 16 g ai/ha): 15
Morningglory plant response rating ([6]; 31 g ai/ha): 10
Plant response rating, Morningglory ([6]; 62 g ai/ha): 10
Plant response rating, Morningglory ([6]; 125 g ai/ha): 30
Ragweed plant response rating ([7]; 16 g ai/ha): 40
Ragweed plant response rating ([7]; 31 g ai/ha): 35
Plant response rating, Ragweed ([7]; 62 g ai/ha): 60
Plant response rating, Ragweed ([7]; 125 g ai/ha): 75
Ryegrass, Italian plant response rating ([8]; 16 g ai/ha): 0
Ryegrass, Italian plant response rating ([8]; 31 g ai/ha): 0
Plant response rating, Ryegrass, Italian ([8]; 62 g ai/ha): 5
Plant response rating, Ryegrass, Italian ([8]; 125 g ai/ha): 10
Nutsedge, Yellow plant response rating ([9]; 16 g ai/ha): 5
Nutsedge, Yellow plant response rating ([9]; 31 g ai/ha): 5
Plant response rating, Nutsedge, Yellow ([9]; 62 g ai/ha): 10
Plant response rating, Nutsedge, Yellow ([9]; 125 g ai/ha): 25
Waterhemp plant response rating ([10]; 16 g ai/ha): 70
Waterhemp plant response rating ([10]; 31 g ai/ha): 90
Plant response rating, Waterhemp ([10]; 62 g ai/ha): 90
Plant response rating, Waterhemp ([10]; 125 g ai/ha): 100
Soybean plant response rating (soybean (Glycine max); 16 g ai/ha): 40
Soybean plant response rating (soybean (Glycine max); 31 g ai/ha): 55
Plant response rating, Soybean (soybean (Glycine max); 62 g ai/ha): 30
Plant response rating, Soybean (soybean (Glycine max); 125 g ai/ha): 95
Barnyardgrass plant response rating ([11]; 16 g ai/ha): 5
Barnyardgrass plant response rating ([11]; 31 g ai/ha): 5
Plant response rating, Barnyardgrass ([11]; 62 g ai/ha): 20
Plant response rating, Barnyardgrass ([11]; 125 g ai/ha): 30
Chickweed plant response rating ([12]; 16 g ai/ha): 5
Chickweed plant response rating ([12]; 31 g ai/ha): 15
Plant response rating, Chickweed ([12]; 62 g ai/ha): 30
Plant response rating, Chickweed ([12]; 125 g ai/ha): 90
